The values that follow come from US12173026B2, “PRMT5 inhibitors” (Merck Sharp & Dohme LLC, priority 2018, dated 2024).

This test relates to symmetric dimethylation of arginine (SDMA) of PRMT5 substrates in MCF-7 cells. Nature of the test: PRMT5 Cell Target Engagement (TE) Assay. The format is cell-based. The following applies: Homo sapiens, MCF7, 72 h; MCF-7 cells treated for 3 days; nuclear SDMA by high content imaging; top concentration 10000 nM. An excerpt:
PRMT5 Cell Target Engagement (TE) Assay
The PRMT5 TE assay is a biomarker assay for identifying compounds that inhibit symmetric dimethylation of arginine (SDMA) of PRMT5 substrates. The following substrates have been reported for PRMT5: Histone H2A and H4 R3, Histone H3 R2, Histone 1-13 R8, spliceosome Sm proteins, ribosomal protein RPS10, p53, FEN1, nucleoplasmin, nucleolin, EGFR and EBNA. The assay will focus on detecting symnetrically dimethylated nuclear proteins using high content imaging technology. Detection of the expression of symmetrically dimethylated nuclear proteins is through a mixture of primary rabbit monoclonal antibodies to SDMA (CST 13222) which in turn recognized by an Alexafluor 488 dye-conjugated anti-rabbit IgG secondary antibody. The IN Cell Analyzer 2200 or Opera-Phenix measures nuclear Alexafluor 488 fluorescent dye intensity that is directly related to the level of expression of symmetrically dimethylated nuclear proteins at the single cell level. Nuclear AF488 dye intensities are compared to the mean value for DMSO treated cells (MIN) to report percent of inhibition for each compound-treated well.
In this assay, the cell potency (EC50) of each compound was determined from a ten point (1:3 serial dilution; top compound concentration of 10000 nM) titration curve using the following outlined procedure. Each well of a BD falcon collagen coated black/clear bottom 384-well plate was seeded with 4000 MCF-7 cells in 30 pal media and allowed to attach for 5 hours. Media is ATCC-formulated Eagle's Minimum Essential Medium, Catalog No. 30-2003. The following components were added to the base medium: 0.01 mg/mL human recombinant insulin; fetal bovine serum to a final concentration of 10%. Additional 30 pal of media containing 2× compounds were added to each well. Cells were treated for 3 days in 37° C. CO2 incubator. On day 3, cells were fixed with Cytofix, permeabilized with 0.4% Triton-X-100/Cytofix, and washed with D-PBS without Ca/Mg. Cells were blocked with Licor Odessey blocking reagent for 1 hour at room temperature, followed by incubation with anti-SDMA (1:1000) antibody at 4° C. overnight. 1° antibody was removed, followed by three washings with DPBS without Ca/Mg and 0.05% Tween20. Hoechst (5 μg/mL), Cell Mask deep stain (1:2000) and Alexa488-conjugated goat anti-rabbit IgG (2 μg/mL) was added for 1 hour at room temperature. A final washing step (three washes) was performed before sealing plate for imaging on in Cell Analyzer 2200 or Opera-Phenix. Images from analyzer were uploaded to Columbus for image analysis. IC50 values were determined by 4 parameters robust fit of percent fluorescence units vs. (Log 10) compound concentrations.

Take `Cc1nc(N)c2c(F)cn([C@@H]3O[C@@H]4[C@H](Cc5ccc6cc(F)c(N)nc6c5)CC[C@]4(O)[C@H]3O)c2n1` [Example 44, (2R,3R,3aS,6S,6aR)-6-((2-amino-3-fluoroquinolin-7-yl)methyl)-2-(4-amino-5-fluoro-2-methyl-7H-pyrrolo[2,3-d]pyrimidin-7-yl)hexahydro-3aH-cyclopenta[b]furan-3,3a-diol 2,2,2-trifluoroacetate]: the EC50 (usually the concentration giving half of the maximal effect) was 8.8 nM. The value for `Nc1nc2cc(C[C@@H]3CC[C@@]4(O)[C@@H]3O[C@@H](n3ccc5c(N)nc(F)nc53)[C@@H]4O)ccc2cc1F` [Example 45, (2R,3R,3aS,6S,6aR)-2(4-amino-2-fluoro-7H-pyrrolo[2,3-d]pyrimidin-7-yl)-6-((2-amino-3-fluoroquinolin-7-yl)methyl)hexahydro-3aH-cyclopenta[b]furan-3,3a-diol] was 1.2 nM. The value for `Nc1nc2cc(C[C@@H]3CC[C@@]4(O)[C@@H]3O[C@@H](n3ccc5c(N)nc(Cl)nc53)[C@@H]4O)ccc2cc1Cl` [Example 47, (2R,3R,3aS,6S,6aR)-2-(4-amino-2-chloro-7H-pyrrolo[2,3-d]pyrimidin-7-yl)-6-[(2-amino-3-chloroquinolin-7-yl)methyl]hexahydro-3aH-cyclopenta[b]furan-3,3a-diol] was 1.4 nM; that for `Nc1nc2cc(C[C@@H]3CC[C@@]4(O)[C@@H]3O[C@@H](n3ccc5c(N)nc(Cl)nc53)[C@@H]4O)ccc2cc1F` [Example 48, (2R,3R,3aS,6S,6aR)-2-(4-amino-2-chloro-7H-pyrrolo[2,3-d]pyrimidin-7-yl)-6-[(2-amino-3-fluoroquinolin-7-yl)methyl]hexahydro-3aH-cyclopenta[b]furan-3,3a-diol] was 1.7 nM; that for `Nc1nc2cc(O[C@H]3CC[C@@]4(O)[C@@H]3O[C@@H](n3cc(-c5ccccc5)c5c(N)ncnc53)[C@@H]4O)ccc2cc1Br` [Example 49, (2R,3R,3aS,6S,6aR)-6-[(2-amino-3-bromoquinolin-7-yl)oxy]-2-(4-amino-5-phenyl-7H-pyrrolo[2,3-d]pyrimidin-7-yl)hexahydro-3aH-cyclcopenta[b]furan-3,3a-diol] was 13 nM. In turn, `Nc1nc2cc(C[C@@H]3CC[C@@]4(O)[C@@H]3O[C@@H](n3cc(C(F)F)c5c(N)ncnc53)[C@@H]4O)ccc2cc1F` [Example 51, (2R,3R,3aS,6S,6aR)-2-[4-amino-5-(difluoromethyl)-7H-pyrrolo[2,3-d]pyrimidin-7-yl]-6-[(2-amino-3-fluoroquinolin-7-yl)methyl]hexahydro-3aH-cyclopenta[b]furan-3,3a-diol] returned an EC50 of 2.8 nM. The value for `Nc1nc2cc(O[C@H]3CC[C@@]4(O)[C@@H]3O[C@@H](n3cc(C5CC5)c5c(N)ncnc53)[C@@H]4O)ccc2cc1Br` [Example 52, (2R,3R,3aS,6S,6aR)-6-[(2-amino-3-bromoquinolin-7-yl)oxy]-2-(4-amino-5-cyclopropyl-7H-pyrrolo[2,3-d]pyrimidin-7-yl)hexahydro-3aH-cyclopenta[b]furan-3,3a-diol] was 75.5 nM. As to `Nc1nc2cc(C[C@H]3[C@H]4O[C@@H](n5ccc6c(N)ncnc65)[C@H](O)[C@@]4(O)CC3(F)F)ccc2cc1F` [Example 53, (2R,3R,3aS,6S,6aR)-6-[(2-amino-3-fluoroquinolin-7-yl)methyl]-2-(4-amino-7H-pyrrolo[2,3-d]pyrimidin-7-yl)-5,5-difluorohexahdro-3aH-cyclopenta[b]furan-3,3a-diol], the midpoint of the response, the EC50, lay at 4.5 nM. The value for `Nc1nc2cc(C[C@H]3[C@H]4O[C@@H](n5ccc6c(N)ncnc65)[C@H](O)[C@@]4(O)C[C@@H]3F)ccc2cc1F` [Example 54, (2R,3R,3aS,5S,6S,6aR)-6-[(2-amino-3-fluoroquinolin-7-yl)methyl]-2-(4-amino-7H-pyrrolo[2,3-d]pyrimidin-7-yl)-5-fluorohexahydro-3aH-cyclopenta[b]furan-3,3a-diol] was 8.1 nM; that for `Nc1nc2cc(C[C@H]3[C@H]4O[C@@H](n5cc(F)c6c(N)ncnc65)[C@H](O)[C@@]4(O)C[C@@H]3F)ccc2cc1F` [Example 55, (2R,3R,3aS,5S,6S,6aR)-2-(4-amino-5-fluoro-7H-pyrrolo[2,3-d]pyrimidin-7-yl)-6-[(2-amino-3-fluoroquinolin-7-yl)methyl]-5-fluorohexahydro-3aH-cyclopenta[b]furan-3,3a-diol,2,2,2-trifluoroethanol] was 3.9 nM; that for `Nc1nc2cc(O[C@H]3CC[C@@]4(O)[C@@H]3O[C@@H](n3cc(F)c5c(N)ncnc53)[C@@H]4O)ccc2cc1Br` [Example 56, (2R,3R,3aS,6S,6aR)-6-((2-amino-3-bromoquinolin-7-yl)oxy)-2-(4-amino-5-fluoro-7H-pyrrolo[2,3-d]pyrimidin-7-yl)hexahydro-3aH-cyclopenta[b]furan-3,3a-diol] was 1.2 nM. Compound `Nc1ncnc2c1ccn2[C@@H]1O[C@@H]2[C@@H](Oc3ccc4ccc(NCC(F)(F)F)nc4c3)CC[C@]2(O)[C@H]1O` [Example 57, (2R,3R,3aS,6S,6aR)-2-(4-amino-7H-pyrrolo[2,3-d]pyrimidin-7-yl)-6-((2-((2,2,2-trifluoroethyl)amino)quinolin-7-yl)oxy)hexahydro-3aH-cyclopenta[b]furan-3,3a-diol] had an EC50 of 2.1 nM. Turning to `Nc1ncnc2c1ccn2[C@@H]1O[C@@H]2[C@@H](Oc3ccc4ccc(NCC5CC5)nc4c3)CC[C@]2(O)[C@H]1O` [Example 58, (2R,3R,3aS,6S,6aR)-2-(4-amino-7H-pyrrolo[2,3-d]pyrimidin-7-yl)-6-((2-((cyclopropylmethyl)amino)quinolin-7-yl)oxy)hexahydro-3aH-cyclopenta[b]furan-3,3a-diol], the EC50 amounted to 1 nM. In the case of `Nc1nc2cc(C[C@@H]3CC[C@@]4(O)[C@@H]3O[C@@H](n3cc(F)c5c(N)ncnc53)[C@@H]4O)ccc2cc1F` [Example 59, (2R,3R,3aS,6S,6aR)-6-((2-amino-3-fluoroquinolin-7-yl)methyl)-2-(4-amino-5-fluoro-7H-pyrrolo[2,3-d]pyrimidin-7-yl)hexahydro-3aH-cyclopenta[b]furan-3,3a-diol], a half-maximal response (EC50) required 4.6 nM. `Cc1cn([C@@H]2O[C@@H]3[C@@H](Oc4ccc5cc(Br)c(N)nc5c4)CC[C@]3(O)[C@H]2O)c2ncnc(N)c12` [Example 60, (2R,3R,3aS,6S,6aR)-6-((2-amino-3-bromoquinolin-7-yl)oxy)-2-(4-amino-5-methyl-7H-pyrrolo[2,3-d]pyrimidin-7-yl)hexahydro-3aH-cyclopenta[b]furan-3,3a-diol]: the EC50 was determined as 1.5 nM. The compound `Cc1nc(N)c2ccn([C@@H]3O[C@@H]4[C@H](Cc5ccc6cc(Br)c(N)nc6c5)CC[C@]4(O)[C@H]3O)c2n1` [Example 61, (2R,3R,3aS,6S,6aR)-2-(4-amino-2-methyl-7H-pyrrolo[2,3-d]pyrimidin-7-yl)-6-((2-amino-3 bromoquinolin-7-yl)methyl)hexahydro-3aH-cyclopenta[b]furan-3,3a-diol] had an EC50 of 3.2 nM. This EC50 is about 2.1-fold higher than that of the compound before. The compound `Cc1cn([C@@H]2O[C@@H]3[C@H](Cc4ccc5cc(F)c(N)nc5c4)CC[C@]3(O)[C@H]2O)c2ncnc(N)c12` [Example 62, (2R,3R,3aS,6S,6aR)-6-((2-amino-3-fluoroquinolin-7-yl)methyl)-2-(4-amino-5-methyl-7H-pyrrolo[2,3-d]pyrimidin-7-yl)hexahydro-3aH-cyclopenta[b]furan-3,3a-diol 2,2,2-trifluoroacetate] displayed a concentration giving a half-maximal response (EC50) of 3.7 nM.
